# Patent US5272141A, “Contraceptive and menstrual cycle controlling drug having oncostatic therapeutic properties for treatment of mammary tumors and melanomas, and method therefor” (priority 1990, dated 1993)
# Entries after “also recorded” stand apart in the source; their conditions may differ. Read-outs that look alike come from different tables or passages of the source.
# How the values were obtained:
# [1] = test system: preventing undesired pregnancies; conditions: cited from earlier work
# [2] = test system: cell cultures, neoplasms and hyperplasias; conditions: humans; cited from earlier work
# [3] = test system: cell cultures, neoplasms and hyperplasias; conditions: laboratory animals; cited from earlier work
# [4] = test system: female patients; experiment: Clinical experimentation of associations used as contraceptives in eighty two female patients; assay type: in vivo, human; conditions: doses lower than those of melatonin
# [5] = Biological activity in vivo and in vitro in respect to melatonin; conditions: both in vivo and in vitro
# [6] = test system: ovarian cell line SK-OV-3; experiment: Growth inhibition of ovarian cell line SK-OV-3; assay type: cell-based, human; conditions: in vitro
# [7] = test system: ovarian cell line JA; experiment: Growth inhibition of ovarian cell line JA; assay type: cell-based, human; conditions: in vitro
# [8] = test system: bladder carcinoma RT-112; experiment: Growth inhibition of bladder carcinoma RT-112; assay type: cell-based, human; conditions: in vitro
# [9] = test system: mammary carcinoma MCF-7 cells; experiment: Growth inhibition of mammary carcinoma MCF-7 cells; assay type: cell-based, human; conditions: in vitro
# [10] = test system: primary cultures of metastatic nodules of a human malignant melanoma; experiment: Growth inhibition in primary cultures of metastatic nodules of a human malignant melanoma; assay type: cell-based; conditions: in vitro
# Excerpt: (§1) In our studies and experiments we have obtained an inhibition greater than 75% of the growth in primary cultures of metastatic nodules of a human malignant melanoma upon treatment in "vitro" with 2-iodomelatonin and 2-bromomelatonin and in primary cultures from different human melanomas, a growth inhibition has been obtained in 6 of 11 patients studied.
# [11] = test system: primary cultures from different human melanomas; experiment: Growth inhibition in primary cultures from different human melanomas; assay type: cell-based
# Excerpt: as §1
# [12] = test system: B-16 melanoma; experiment: Lung metastasis and local tumor growth in mice implanted with B-16 melanoma; assay type: in vivo
# Excerpt: (§2) The results obtained in our laboratories, however, have demonstered that 2-iodomelatonin and 2-bromomelatonin cause a reduction both in the number of the lung metastasis and of the local growth of tumors in mice inplanted with B-16 melanoma or MS-2 fibrosarcoma cells.
# [13] = test system: MS-2 fibrosarcoma cells; experiment: Lung metastasis and local tumor growth in mice implanted with MS-2 fibrosarcoma cells; assay type: in vivo
# Excerpt: as §2
# [14] = test system: normal tissues; experiment: Binding in normal tissues
# [15] = test system: neoplastic tissues; experiment: Binding in neoplastic tissues; conditions: compared with normal tissues
# [16] = test system: tumors; experiment: Long term treatment: arrest and partial regression of tumors in human; assay type: in vivo; conditions: in some cases
# [17] = test system: cellular membranes of melanoma; experiment: Binding to cellular membranes of melanoma
# [18] = test system: cellular membranes of mammary gland cancer; experiment: Binding to cellular membranes of mammary gland cancer
# [19] = test system: cellular membranes of cellular lines infected with oncogenic viruses; experiment: Binding to cellular membranes of cellular lines infected with oncogenic viruses
# [20] = Hematic, biochemical, electrophoretic, organ, bone marrow and histological toxicity tests; conditions: in vivo
# Excerpt: The haematochemical, electrophoretic tests, and the tests for determining the status and weight of organs, bone marrow, and the hystological tests have not shown any particular toxicity and, based on these observations, which show the low toxicity of the individual compounds and associations, a favourable opinion has been released about the starting of the clinical experimentation.
# [21] = Acute toxicity in rats; conditions: rat, in vivo; for LD50: po, per os, read-out: DL50 (the source's name)
# Procedure: (§3) In the specific case of melatonin, acute
# 1) Rats, intraperitoneally
# 2) Rats, per os DL50 = greater than
# (§4) (observation period 14 days)
# the symbol DL50 means the amount of material which kills 50% of the
# (§5) With respect to the toxicity of 2-iodomelatonin and 2-bromomelatonin, the acute toxicity tests have been carried out:
# 1) in rats per os: DL50 greater than 200 mg/Kg
# [22] = Acute toxicity in mice; conditions: mouse, in vivo, read-out: DL50 (the source's name)
# Procedure: as §5
# 2) in mice per os and intraperitoneally: DL50 greater than 100 mg/Kg.
# [23] = test system: human neoplastic cell lines; experiment: Oncostatic effects in vitro; assay type: cell-based
# [24] = test system: tumors; experiment: Oncostatic effects in vivo
# [25] = test system: stimulated dopamine release in the retina; conditions: cited from earlier work
# [26] = test system: estrogen receptor; experiment: Estrogen receptor number in MCF-7; assay type: cell-based, human
# [27] = in vivo; design: species or system rabbits; conditions: rabbit, iv
# Excerpt: as §3
# 3) rabbits, intravenously
# as §4
# (§6) the symbol DL50 means the amount of material which kills 50% of the […]
# [28] = Sub-acute toxicity in rats; conditions: rat, in vivo, sc, subcutaneously, observation period 25 days, read-out: DL50
# Excerpt: and the sub-acute toxicity in:
# (observation period 25 days).
# as §6
# [29] = test system: human contraception; conditions: comparatively high doses; cited from earlier work
Compound,dose reduction relative to melatonin (times lower) [4],activity relative to that of melatonin (times higher) [5],inhibition of the growth [6],inhibition of the growth [7],inhibition of the growth [8],inhibition of the growth [9],inhibition of the growth [10],growth inhibition obtained (patients responding of patients studied) [11],local growth of tumors [12],number of the lung metastasis [12],local growth of tumors [13],number of the lung metastasis [13],binding [14],binding affinity [15],tumor arrest and regression [16],binding to cellular membranes [17],binding to cellular membranes [18],binding to cellular membranes [19],"toxicity in hematic, biochemical, electrophoretic, organ, bone marrow and histological tests [20]",inhibition of stimulated dopamine release [25],further results
C#C[C@]1(O)CC[C@H]2[C@@H]3CCC4=CC(=O)CC[C@@H]4[C@H]3CC[C@@]21CC [1-norgestrel],,,,,,,,,,,,,,,,,,,,,contraceptive results compared with norethisterone mini-pill ([1]; reduced doses (0.08-0.16 mg)): better results
COc1ccc2[nH]c([125I])c(CCNC(C)=O)c2c1 [2-(125I)-iodomelatonin],,,,,,,,,,,,,,,,,,,,,binding [2]: specific and saturable binding; binding [3]: specific and saturable binding
"COc1ccc2[nH]c(Br)c(CCNC(C)=O)c2c1 [2-bromomelatonin, N-acetyl-2-bromo-5-methoxytriptamine]",five to ten,seven to ten,dose-dependant inhibition of the growth,dose-dependant inhibition of the growth,dose-dependant inhibition of the growth,dose-dependant inhibition of the growth; also recorded: inhibited the growth of the cellular lines MCF-7 in a dose dependant manner,greater than 75%,6 of 11,reduction,reduction,reduction,reduction,"high affinity, saturable and specific",much lower,arrest and partial regression of tumors,bind to the cellular membranes,bind to the cellular membranes,bind to the cellular membranes,have not shown any particularly toxicity,potent inhibitors,"LD50 [21]: > 200 mg/kg; LD50 ([22]; ip, intraperitoneally): > 100 mg/kg; LD50 ([22]; po, per os): > 100 mg/kg; oncostatic effects [23]: Powerful oncostatic effects; oncostatic effects [24]: Powerful oncostatic effects"
"COc1ccc2[nH]c(I)c(CCNC(C)=O)c2c1 [2-iodomelatonin, N-acetyl-2-iodo-5-methoxytriptamine]",five to ten,seven to ten,dose-dependant inhibition of the growth,dose-dependant inhibition of the growth,dose-dependant inhibition of the growth,dose-dependant inhibition of the growth; also recorded: inhibited the growth of the cellular lines MCF-7 in a dose dependant manner,greater than 75%,6 of 11,reduction,reduction,reduction,reduction,"high affinity, saturable and specific",much lower,arrest and partial regression of tumors,bind to the cellular membranes,bind to the cellular membranes,bind to the cellular membranes,have not shown any particularly toxicity,potent inhibitors,"LD50 [21]: > 200 mg/kg; LD50 ([22]; ip, intraperitoneally): > 100 mg/kg; LD50 ([22]; po, per os): > 100 mg/kg; oncostatic effects [23]: Powerful oncostatic effects; oncostatic effects [24]: Powerful oncostatic effects"
"C#C[C@]1(O)CC[C@H]2[C@@H]3CCC4=CC(=O)CC[C@@H]4[C@H]3CC[C@@]21C [Norethisterone, norethisterone]",,,,,,,,,,,,,,,,,,,,,"undesired pregnancies ([1]; mini-pill, alone): about 2.35%"
"COc1ccc2[nH]cc(CCNC(C)=O)c2c1 [melatonin, reference compound]",,,,,,,,,,,,,"high affinity, saturable and specific",much lower,arrest and partial regression of tumors,,,,have not shown any particularly toxicity,"potent inhibitors of stimulated dopamine release in this organ, very much like melatonin","estrogen receptor number [26]: temporarily caused an increase of the estrogen receptor number; LD50 at 336 h ([21]; ip, intraperitoneally, observation period 14 days, read-out: DL50): 462 mg/kg; LD50 ([21]; observation period 14 days): > 800 mg/kg; LD50 at 336 h [27]: 394 mg/kg; LD50 at 600 h [28]: > 192 mg/kg; dose required to express contraceptive action [29]: 100 to 200 mg"
